Data: paper PMC11121450, “Evaluation of the Inhibitory Potential of Synthetic Peptides Homologous to CDR3 Regions of a Monoclonal Antibody against Bothropic Venom Serine Proteases” (International Journal of Molecular Sciences, 2024)
Residues, ends and D or L forms follow the SMILES beside them. No end group written: not given here.

Columns and labels:
[1] = test system: B. jararaca and B. atrox venoms; type: in vitro ADME, Bothrops jararaca; Bothrops atrox; settings: incubation with B. jararaca and B. atrox venoms (0.1 µg of both venoms per table footnote; 90 ng and 20 ng per method), 50 µM peptide, 4 h, 37 °C, 100 mM Tris HCl, 20 mM NaCl, pH 7.4; RP-HPLC C-18, UV 214 nm; relative to β-chain of insulin
Procedure: To verify the stability of the synthetic peptides, they were incubated with both venoms, and tests were performed using reverse-phase liquid chromatography on a C-18 column. […] As a positive control, the β-chain of insulin was used, which is known to be a substrate for the SVSPs and SVMPs of bothropic venoms.
With the aim of verifying the possible hydrolysis of peptides by the studied venoms, the samples were prepared in 100 mM Tris-HCl, 20 mM NaCl, pH 7.4, final volume 100 µL, using 50 µM of each synthetic peptide, incubating them separately with the venoms of B. jararaca (90 ng) and B. atrox (20 ng) for 4 h at 37 °C, the same concentrations used in the enzymatic assays. A solution containing the β-chain of insulin (50 µM) was used as a positive control since it is a described substrate for SVSP from both venoms. The conditions for the HPLC (Shimadzu Prominence) analysis used 0.1% trifluoroacetic acid (TFA) in water (solvent A), and acetonitrile (ACN) and solvent A (9:1) as solvent B. The analyses occurred at a flow rate of 1 mL/min using a C-18 column (Shim-pack VP-ODS4.6 x 150 mm) and a gradient of 20–60% solvent B for 20 min. In all cases, 50 µL of each sample was injected and the absorbance was monitored at 214 nm.

[2] = target: elastase-1 (EC 3.4.21.36) (Sus scrofa, UniProt P00772); test: Inhibition of elastase-1, Abz-FRSSRQ-EDDnp substrate; type: biochemical; settings: peptide 20 µM, 300 ng elastase-1, Abz-FRSSRQ-EDDnp 5 µM, Tris-HCl 50 mM, pH 8, 37 °C, quadruplicate
elastase-1 (EC 3.4.21.36), sequence (P00772 27-266): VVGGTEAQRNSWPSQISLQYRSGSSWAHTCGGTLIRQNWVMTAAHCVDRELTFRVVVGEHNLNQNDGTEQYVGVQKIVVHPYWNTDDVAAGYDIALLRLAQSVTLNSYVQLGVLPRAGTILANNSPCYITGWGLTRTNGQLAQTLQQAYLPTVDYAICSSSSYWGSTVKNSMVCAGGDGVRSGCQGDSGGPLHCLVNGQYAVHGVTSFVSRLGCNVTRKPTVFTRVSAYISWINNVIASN
Procedure: Figure 8 Inhibitory activity assay against human thrombin (panel A), trypsin (panel B), and elastase-1 (panel C). The experiments were performed in a fluorimeter (Hidex 425-301, Turku, Finland), with readings adjusted for excitation and emission at 320 and 420 nm using Abz-FRSSRQ-EDDnp as a substrate. Assays were performed in quadruplicate, in Tris-HCl 50 mM, pH 8.0 (for trypsin and elastase-1 assays), and 100 mM Tris-HCl, 20 mM NaCl, pH 7.4, for human thrombin at 37 °C, using 1.7 ng/µL of trypsin, 300 ng/µL of human thrombin, and 300 ng of elastase-1. […]
To verify the selective inhibition of the SVTLE by the peptides, it was necessary to perform experiments with other serine proteases of physiological relevance. For this, the possible inhibition of elastase-1 (EC 3.4.21.36), trypsin (EC 3.4.21.4), and human thrombin (EC 3.4.21.5) was analyzed. […] The activities were assessed in 50 mM Tris-HCl, pH 8, for trypsin; Tris-HCl 50 mM, NaCl 50 mM, pH 8, for elastase-1; and 100 mM Tris-HCl, 20 mM NaCl, pH 7.4, for human thrombin (final volume of 100 µL), using 96-well plates (Corning) and the substrate Abz-FRSSRQ-EDDnp (5 µM). […] Assays were performed on a Hidex fluorimeter (425-301 Hidex, Turku, Finland), with the excitation and emission of fluorescence fixed at 320 and 420 nm, respectively. […] The readings occurred over 15 min at 1 min intervals. […]

human thrombin = human thrombin (Homo sapiens, UniProt P00734); test: Inhibition of human thrombin, Abz-FRSSRQ-EDDnp substrate; type: biochemical; settings: for Ki: Dixon plot, three peptide concentrations including zero, thrombin 300 ng/µL, Abz-FRSSRQ-EDDnp substrate, read-out: inhibition constant (Ki) against human thrombin; for reduction of hydrolytic activity of thrombin: peptide 100 µM, 300 ng human thrombin, Abz-FRSSRQ-EDDnp 5 µM, 100 mM Tris-HCl, 20 mM NaCl, pH 7.4, 37 °C, quadruplicate
Procedure: Figure 8 Inhibitory activity assay against human thrombin (panel A), trypsin (panel B), and elastase-1 (panel C). The experiments were performed in a fluorimeter (Hidex 425-301, Turku, Finland), with readings adjusted for excitation and emission at 320 and 420 nm using Abz-FRSSRQ-EDDnp as a substrate. Assays were performed in quadruplicate, in Tris-HCl 50 mM, pH 8.0 (for trypsin and elastase-1 assays), and 100 mM Tris-HCl, 20 mM NaCl, pH 7.4, for human thrombin at 37 °C, using 1.7 ng/µL of trypsin, 300 ng/µL of human thrombin, and 300 ng of elastase-1. […] Panel (B): For these assays, the peptides were used at 100 µM, and CDR3 A and CDR3 E inhibited the substrate hydrolysis by thrombin by 34% and 100%, respectively. […] (****) p < 0.0001.
With the obtained velocities, curves were plotted on the Dixon plot (1/V versus [I]) (Figure 9).
Lines indicate a competitive mechanism of action. Kis of 61.77 µM (CDR3 A) and 55.75 (CDR3 E) were obtained. For the construction of the graph, the software GraphPad Prism 8 was used.
To verify the selective inhibition of the SVTLE by the peptides, it was necessary to perform experiments with other serine proteases of physiological relevance. For this, the possible inhibition of elastase-1 (EC 3.4.21.36), trypsin (EC 3.4.21.4), and human thrombin (EC 3.4.21.5) was analyzed. The evaluation of enzyme activities was performed as described above. The activities were assessed in 50 mM Tris-HCl, pH 8, for trypsin; Tris-HCl 50 mM, NaCl 50 mM, pH 8, for elastase-1; and 100 mM Tris-HCl, 20 mM NaCl, pH 7.4, for human thrombin (final volume of 100 µL), using 96-well plates (Corning) and the substrate Abz-FRSSRQ-EDDnp (5 µM). All reactions occurred at 37 °C using 1.7 ng of trypsin, 300 ng of human thrombin, and 300 ng of elastase-1. Assays were performed on a Hidex fluorimeter (425-301 Hidex, Turku, Finland), with the excitation and emission of fluorescence fixed at 320 and 420 nm, respectively. The trypsin and elastase-1 assays were performed using 20 µM of each peptide, and the human thrombin assays were performed using 100 µM. The readings occurred over 15 min at 1 min intervals. The experiments were performed in quadruplicate.

Row | Compound | Relative Hydrolysis Ratio (%) [1] [%] | reduction of substrate hydrolysis by elastase-1 [2] [%] | Ki (human thrombin) [µM] | reduction of hydrolytic activity of thrombin (human thrombin) [%]
1 | CC(C)C[C@H](NC(=O)[C@H](CC(N)=O)NC(=O)[C@H](Cc1ccc(O)cc1)NC(=O)[C@H](CO)NC(=O)[C@H](CCC(N)=O)NC(=O)[C@H](CCCCN)NC(=O)[C@H](CS)NC(=O)CNC(=O)[C@@H]1CCCN1C(=O)CNC(=O)CNC(=O)[C@H](Cc1ccc(O)cc1)NC(=O)[C@H](CC(=O)O)NC(=O)[C@H](Cc1ccccc1)NC(=O)[C@H](Cc1ccc(O)cc1)NC(=O)[C@H](Cc1ccc(O)cc1)NC(=O)CNC(=O)[C@H](CC(=O)O)NC(=O)[C@H](Cc1c[nH]c2ccccc12)NC(=O)[C@H](CC(=O)O)NC(=O)[C@H](CCCNC(=N)N)NC(=O)[C@H](CCCCN)NC(=O)[C@@H](N)CS)C(=O)N[C@@H](CCCNC(=N)N)C(=O)N[C@H](C(=O)O)[C@@H](C)O [CDR3 D] (H-CKRDWDGYYFDYGGPGCKQSYNLRT-OH) | <0.01 | – | – | –
2 | CKQSYNLRT [CDR3 C] | <0.01 | 22 | – | –
3 | CKRDWDGYYFDY [CDR3 A] | <0.01 | – | 61.8 | 34
4 | CC(C)C[C@H](NC(=O)[C@H](CC(N)=O)NC(=O)[C@H](Cc1ccc(O)cc1)NC(=O)[C@H](CO)NC(=O)[C@H](CCC(N)=O)NC(=O)[C@H](CCCCN)NC(=O)[C@H](CS)NC(=O)CNC(=O)CNC(=O)[C@@H]1CCCN1C(=O)CNC(=O)CNC(=O)[C@H](Cc1ccc(O)cc1)NC(=O)[C@H](CC(=O)O)NC(=O)[C@H](Cc1ccccc1)NC(=O)[C@H](Cc1ccc(O)cc1)NC(=O)[C@H](Cc1ccc(O)cc1)NC(=O)CNC(=O)[C@H](CC(=O)O)NC(=O)[C@H](Cc1c[nH]c2ccccc12)NC(=O)[C@H](CC(=O)O)NC(=O)[C@H](CCCNC(=N)N)NC(=O)[C@H](CCCCN)NC(=O)[C@@H](N)CS)C(=O)N[C@@H](CCCNC(=N)N)C(=O)N[C@H](C(=O)O)[C@@H](C)O [CDR3 E] (H-CKRDWDGYYFDYGGPGGCKQSYNLRT-OH) | <0.01 | – | 55.7 | 100
